In ChEMBL document CHEMBL1201862, “PubChem BioAssay data set” (2004):
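Assay format: 96-well plates, 48-hour exposure. At the GI50, growth is halved.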 The source made the active and inactive calls. No stated cut-off is given here; in the data, active = GI50 up to about 1.1 µM and inactive = higher.

How the values were obtained:
Test in all cases: NCI-60 cell line screen, 48 h
[1] = test system: ACHN
[2] = test system: EKVX
[3] = test system: PC-3
[4] = test system: MOLT-4
[5] = test system: OVCAR-4
[6] = test system: Hs-578T
[7] = test system: DU-145
[8] = test system: HOP-92
[9] = test system: A498
[10] = test system: SF-268
[11] = test system: M14
[12] = test system: NCI-H460
[13] = test system: CCRF-CEM
[14] = test system: BT-549
[15] = test system: KM12
[16] = test system: SF-295
[17] = test system: MDA-N
[18] = test system: HL-60
[19] = test system: SK-MEL-2
[20] = test system: UO-31

Compound | GI50 [1] | GI50 [2] | GI50 [3] | GI50 [4] | GI50 [5] | GI50 [6] | GI50 [7] | GI50 [8] | GI50 [9] | GI50 [10] | GI50 [11] | GI50 [12] | GI50 [13] | GI50 [14] | GI50 [15] | GI50 [16] | GI50 [17] | GI50 [18] | GI50 [19] | GI50 [20]
CN(C)CCCSc1nc2c(c(=N)n1-c1ccccc1)c(=S)n(-c1ccccc1)c(=S)n2-c1ccccc1 | 1.82 µM (inactive) | 1.91 µM (inactive) | 1.75 µM (inactive) | 0.789 µM (active) | 1.79 µM (inactive) | 3.12 µM (inactive) | 1.67 µM (inactive) | 1.8 µM (inactive) | 2.42 µM (inactive) | 1.73 µM (inactive) | 1.78 µM (inactive) | 1.82 µM (inactive) | 0.43 µM (active) | 1.68 µM (inactive) | 1.83 µM (inactive) | 5.21 µM (inactive) | 1.71 µM (inactive) | 0.798 µM (active) | 2.12 µM (inactive) | 
CC1(C)N=C(N)N=C(N)N1c1ccc(CCCCc2ccc(Cl)cc2Cl)cc1 | 4.57 µM (inactive) | 15.1 µM (inactive) | 0.418 µM (active) | 0.861 µM (active) | 0.542 µM (active) | 4.67 µM (inactive) | 1.92 µM (inactive) | 4.08 µM (inactive) | 12.8 µM (inactive) | 0.382 µM (active) | 0.914 µM (active) | 0.0165 µM (active) | 0.736 µM (active) | 1.85 µM (inactive) | 0.63 µM (active) | 0.893 µM (active) | 0.982 µM (active) | 0.461 µM (active) | 0.887 µM (active) | 21.2 µM (inactive)
O=c1c2ccccc2nc(-c2ccc(Cl)cc2)n1O | 22.5 µM (inactive) | 21.7 µM (inactive) | 33.9 µM (inactive) | 17.9 µM (inactive) | 37 µM (inactive) | 76 µM (inactive) | 89.9 µM (inactive) | 15.6 µM (inactive) | 53.7 µM (inactive) | 18.8 µM (inactive) | 26.4 µM (inactive) | 11.1 µM (inactive) | 14.1 µM (inactive) | 27.3 µM (inactive) | 9.53 µM (inactive) | 27.5 µM (inactive) | 35.6 µM (inactive) | 18.3 µM (inactive) |  | 2.2 µM (inactive)
CCOC(=O)NC(Nc1ccc(C(=O)OCC)cc1)(C(F)(F)F)C(F)(F)F | 42.7 µM (inactive) |  | 45 µM (inactive) | 11.1 µM (inactive) | > 100 µM (inactive) | > 100 µM (inactive) | > 100 µM (inactive) | > 100 µM (inactive) | > 100 µM (inactive) | > 100 µM (inactive) | > 100 µM (inactive) | 66.8 µM (inactive) | 6.58 µM (inactive) | > 100 µM (inactive) | 78.9 µM (inactive) | > 100 µM (inactive) | 49.8 µM (inactive) | > 100 µM (inactive) |  | 42.5 µM (inactive)
COc1ccc(CC/N=C2\OCc3ccccc32)cc1OC | 52.5 µM (inactive) | 76.2 µM (inactive) | 46.9 µM (inactive) | 50.4 µM (inactive) | 59 µM (inactive) | 67 µM (inactive) | 32.4 µM (inactive) | 31.2 µM (inactive) | > 100 µM (inactive) |  |  | 45.5 µM (inactive) | 29.1 µM (inactive) | > 100 µM (inactive) | 31.5 µM (inactive) | 33.3 µM (inactive) | 38.8 µM (inactive) | 5.42 µM (inactive) | 51.2 µM (inactive) | 69 µM (inactive)
Fc1cccc(F)c1C1SCC2=Nc3ccccc3CN21 (stereo not drawn) | 33.7 µM (inactive) | 79.6 µM (inactive) | 30.8 µM (inactive) | 74 µM (inactive) | > 100 µM (inactive) | 25.4 µM (inactive) | 60 µM (inactive) | 71.8 µM (inactive) | > 100 µM (inactive) | > 10 µM (inactive) | 91.2 µM (inactive) | 71 µM (inactive) | > 100 µM (inactive) | 98.6 µM (inactive) | 54 µM (inactive) | 38.1 µM (inactive) | > 100 µM (inactive) | 44.2 µM (inactive) |  | 96.6 µM (inactive)
N/C(COc1ccc(Cl)cc1)=N\NC(=O)c1ccncc1 | > 100 µM (inactive) | 76.2 µM (inactive) | > 100 µM (inactive) | > 100 µM (inactive) | > 100 µM (inactive) | > 100 µM (inactive) | > 100 µM (inactive) | 58.9 µM (inactive) | 57.9 µM (inactive) | > 100 µM (inactive) | > 100 µM (inactive) | 63.5 µM (inactive) | 51.1 µM (inactive) | > 100 µM (inactive) | > 100 µM (inactive) | > 100 µM (inactive) | > 100 µM (inactive) | > 100 µM (inactive) | > 100 µM (inactive) | 
O=C(Nc1ccc(Cl)c(Cl)c1)N1N=C2c3ccccc3CCC2C1c1ccc(Cl)cc1 (stereo not drawn) | > 100 µM (inactive) | > 100 µM (inactive) | > 100 µM (inactive) | > 100 µM (inactive) | > 100 µM (inactive) | > 100 µM (inactive) | > 100 µM (inactive) | > 100 µM (inactive) | > 100 µM (inactive) | > 100 µM (inactive) | > 100 µM (inactive) | > 100 µM (inactive) | > 100 µM (inactive) | > 100 µM (inactive) | > 100 µM (inactive) | > 100 µM (inactive) | > 100 µM (inactive) | > 100 µM (inactive) | > 100 µM (inactive) | > 100 µM (inactive)
CC1=NN(c2nc(N)nc(CCl)n2)C(C)(C)C1 | 10.3 µM (inactive) | 12.9 µM (inactive) | 40.8 µM (inactive) | 19.5 µM (inactive) | 8.63 µM (inactive) | 21 µM (inactive) | 35.1 µM (inactive) | 17.9 µM (inactive) | 30.6 µM (inactive) | 20.6 µM (inactive) | 30.7 µM (inactive) | 17.2 µM (inactive) | 8.15 µM (inactive) | 26.7 µM (inactive) | 19.3 µM (inactive) | 25.7 µM (inactive) | 31.5 µM (inactive) | 4.69 µM (inactive) | 46.8 µM (inactive) | 9.02 µM (inactive)
CCC(=O)Nc1ccc(NC(C#N)c2cccc(Oc3ccccc3)c2)cc1 (stereo not drawn) | 32.7 µM (inactive) | 67.6 µM (inactive) | 63.4 µM (inactive) | 4.29 µM (inactive) | 54.1 µM (inactive) | 67.3 µM (inactive) | 48.3 µM (inactive) | 34.8 µM (inactive) | > 100 µM (inactive) | 33.6 µM (inactive) | 40.3 µM (inactive) |  | 32.1 µM (inactive) | 57.7 µM (inactive) | 58.6 µM (inactive) | 45.7 µM (inactive) | 34.4 µM (inactive) | 13.5 µM (inactive) | 35 µM (inactive) | 42.2 µM (inactive)
Cn1nc2c(c1N)Cc1c(nn(C)c1N)-c1ccccc1-2 | > 100 µM (inactive) | > 100 µM (inactive) | > 100 µM (inactive) | > 100 µM (inactive) | > 100 µM (inactive) | > 100 µM (inactive) | > 100 µM (inactive) | > 100 µM (inactive) | 20.2 µM (inactive) | > 100 µM (inactive) | > 100 µM (inactive) | > 100 µM (inactive) | > 100 µM (inactive) | > 100 µM (inactive) | > 100 µM (inactive) | > 100 µM (inactive) | > 100 µM (inactive) | > 100 µM (inactive) | > 100 µM (inactive) | > 100 µM (inactive)
COc1cc(C2SCC(=O)N2c2ccc(Cl)c(Cl)c2)cc(OC)c1OC (stereo not drawn) |  | 25.5 µM (inactive) | 54.2 µM (inactive) | 14.7 µM (inactive) | 27.4 µM (inactive) | > 100 µM (inactive) | > 38.5 µM (inactive) | 80.9 µM (inactive) | > 100 µM (inactive) | > 100 µM (inactive) | 11.2 µM (inactive) | 30.2 µM (inactive) | 14.8 µM (inactive) | 44.7 µM (inactive) | 12.7 µM (inactive) | 29.8 µM (inactive) | 13 µM (inactive) | 19.5 µM (inactive) | 30.2 µM (inactive) | 18.9 µM (inactive)
NC(=O)SCC(=O)Nc1ccc2cccc3c2c1CC3 | 22.8 µM (inactive) | > 100 µM (inactive) | 4.4 µM (inactive) | 19.8 µM (inactive) | 17.3 µM (inactive) | 47.6 µM (inactive) | > 100 µM (inactive) | 0.596 µM (active) | 91 µM (inactive) | 15.3 µM (inactive) | 21.8 µM (inactive) |  | 8.02 µM (inactive) | 16.2 µM (inactive) | 36.7 µM (inactive) | 21.1 µM (inactive) | 21.8 µM (inactive) | 3.9 µM (inactive) | 17.1 µM (inactive) | 41.2 µM (inactive)
CC(=N)OC1CC2CCC1(C)C2(C)C (stereo not drawn) | > 100 µM (inactive) | > 100 µM (inactive) | > 100 µM (inactive) | > 100 µM (inactive) | > 100 µM (inactive) | > 100 µM (inactive) | > 100 µM (inactive) | > 100 µM (inactive) | > 100 µM (inactive) | > 100 µM (inactive) | > 100 µM (inactive) | > 100 µM (inactive) | > 100 µM (inactive) | > 100 µM (inactive) | > 100 µM (inactive) | > 100 µM (inactive) | > 100 µM (inactive) | > 100 µM (inactive) |  | > 100 µM (inactive)
